Results as given in patent US11559559B2, “Angiotensin II alone or in combination for the treatment of hypotension” (The George Washington University a Congressionally …, priority 2013, dated 2023).

Test system: patients with high output shock
Details: in vivo
Procedure: The investigators, clinical support staff, the patients and their families were unaware of the treatment assignment for the duration of the study.
Enrolled patients were randomized to receive the Study Drug infusion in normal saline calculated to run at a drip rate corresponding to an initial concentration of 20 ng/kg/min, plus the standard-of-care treatment for high output shock. The Study Drug was prepared in an opaque cellophane bag, the contents of which were unknown to the investigators, nurses or anyone else taking direct care of the patient. The Study Drug was administered for a total of 6 hours, with dose (and corresponding drip rate) adjustments made hourly. Study Drug dose adjustments were determined per a pre-specified protocol, based on the concomitant requirements of standard-of-care therapy (in all cases, norepinephrine infusion plus vasopressin, epinephrine and/or phenylephrine infusions) needed to maintain a mean arterial pressure (MAP) at or above 65 mm Hg, which is the standard practice at our institution. […] At the end of 6 hours, the Study Drug infusion was titrated off by being halved every 10 minutes until the Study Drug infusion dose was below 5 ng/kg/min, after which it was discontinued.
A small cohort of patients was analyzed, consistent with similar studies of this nature. […] An independent data and safety monitor (DSM) was assigned and reviewed all adverse events.

CC[C@H](C)[C@H](NC(=O)[C@H](Cc1ccc(O)cc1)NC(=O)[C@@H](NC(=O)[C@H](CCCNC(=N)N)NC(=O)[C@@H](N)CC(=O)O)C(C)C)C(=O)N[C@@H](Cc1cnc[nH]1)C(=O)N1CCC[C@H]1C(=O)N[C@@H](Cc1ccccc1)C(=O)O [ATII, angiotensin II]
Adverse events: Acidosis: 2 | Adverse events: Atrial Fibrillation: 2 | Adverse events: Blood or lymphatic disorders: 3 | Adverse events: Cardiac disorders: 7 | Adverse events: Decreased urine output: 3 | Adverse events: Hypertension: 2 | Adverse events: Hypotension: 2 | Adverse events: Metabolic disorders: 11 | Adverse events: Other disorders: 5 | Adverse events: Renal disorders: 6 | Adverse events: Respiratory disorders: 3 | Adverse events: Wheezing: 1 | Adverse events: Worsening AKI: 0 | Adverse events: Worsening MOSF: 2 | Adverse events: Worsening respiratory failure: 1 | hypertension, patients receiving ATII in whom it occurred: 20% | patients in whom ATII infusion was discontinued due to hypertension: ^⋄ATII infusion was discontinued in two patients due to hypertension. | tolerability: well-tolerated
